Results taken from ChEMBL document CHEMBL1759923, “Preparation, in vitro screening and molecular modelling of symmetrical bis-quinolinium cholinesterase inhibitors--implications for early myasthenia gravis treatment” (Bioorg Med Chem Lett, 2011).
Calls of active or inactive are those of the source. The calls are words filed in the database; no cut-off is given here.

Columns and labels:
Cholinesterase = Cholinesterase (Homo sapiens, UniProt P06276); assay: Inhibition of human plasmatic BChE by modified Ellman's method; parameters: species or system Plasma
Acetylcholinesterase [1] = biological target: T1, Acetylcholinesterase (Homo sapiens, UniProt P22303); assay: Inhibition of human erythrocyte recombinant AChE by modified Ellman's method
Acetylcholinesterase [2] = biological target: T1, Acetylcholinesterase; assay: Inhibition of human erythrocytes recombinant AChE assessed as dissociation constant for enzyme-inhibitor complex
Acetylcholinesterase [3] = biological target: T1, Acetylcholinesterase; assay: Inhibition of human erythrocytes recombinant AChE assessed as dissociation constant for enzyme-inhibitor-substrate complex
Acetylcholinesterase [4] = biological target: T1, Acetylcholinesterase; assay: Inhibition of human erythrocyte recombinant AChE at 0.1 mM to […] by modified Ellman's method

T1 sequence (P22303 whole entry): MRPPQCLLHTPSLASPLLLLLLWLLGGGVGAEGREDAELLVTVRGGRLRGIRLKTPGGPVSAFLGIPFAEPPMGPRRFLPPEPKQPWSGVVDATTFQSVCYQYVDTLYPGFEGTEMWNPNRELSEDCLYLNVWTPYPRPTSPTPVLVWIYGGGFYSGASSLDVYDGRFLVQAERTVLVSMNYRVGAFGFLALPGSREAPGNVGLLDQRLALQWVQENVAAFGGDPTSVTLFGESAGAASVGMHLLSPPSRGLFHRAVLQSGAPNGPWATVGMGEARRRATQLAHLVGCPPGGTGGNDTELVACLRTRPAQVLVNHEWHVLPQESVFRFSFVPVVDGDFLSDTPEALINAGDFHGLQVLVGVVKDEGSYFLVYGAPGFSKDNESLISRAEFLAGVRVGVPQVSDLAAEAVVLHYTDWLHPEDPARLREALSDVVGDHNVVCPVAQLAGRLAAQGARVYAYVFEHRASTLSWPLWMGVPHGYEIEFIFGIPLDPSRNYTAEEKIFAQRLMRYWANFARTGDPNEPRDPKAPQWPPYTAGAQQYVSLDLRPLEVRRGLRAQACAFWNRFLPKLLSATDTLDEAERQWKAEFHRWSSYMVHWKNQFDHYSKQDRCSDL
Chain of Cholinesterase (P06276 whole entry): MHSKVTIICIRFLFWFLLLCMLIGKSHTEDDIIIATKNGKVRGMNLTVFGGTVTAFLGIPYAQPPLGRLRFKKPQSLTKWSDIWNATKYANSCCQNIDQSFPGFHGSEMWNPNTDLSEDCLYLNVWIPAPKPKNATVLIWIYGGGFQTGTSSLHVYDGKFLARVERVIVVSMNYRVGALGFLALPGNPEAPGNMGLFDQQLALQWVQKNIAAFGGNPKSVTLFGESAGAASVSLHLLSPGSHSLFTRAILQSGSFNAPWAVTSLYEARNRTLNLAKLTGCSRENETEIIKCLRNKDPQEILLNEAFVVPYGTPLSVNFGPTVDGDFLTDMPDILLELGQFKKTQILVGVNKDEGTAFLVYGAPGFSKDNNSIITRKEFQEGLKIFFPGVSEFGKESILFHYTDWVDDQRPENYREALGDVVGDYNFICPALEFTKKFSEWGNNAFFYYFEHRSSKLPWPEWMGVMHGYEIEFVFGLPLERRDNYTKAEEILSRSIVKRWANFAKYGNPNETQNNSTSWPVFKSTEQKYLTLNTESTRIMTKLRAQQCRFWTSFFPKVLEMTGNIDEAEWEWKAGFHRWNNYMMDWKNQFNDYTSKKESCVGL

| Compound | IC50 (Cholinesterase) [µM] | IC50 (Acetylcholinesterase [1]) [µM] | Ki (Acetylcholinesterase [2]) [µM] | Ki (Acetylcholinesterase [3]) [µM] | inhibition (Acetylcholinesterase [4]) |
| --- | --- | --- | --- | --- | --- |
| C(=C\C[n+]1cccc2ccccc21)/C[n+]1cccc2ccccc21 | 308 | 6 |  |  |  |
| C(=C/C[n+]1cccc2ccccc21)/C[n+]1cccc2ccccc21 | 0.8 | 2 |  |  |  |
| c1ccc2c(c1)ccc[n+]2COC[n+]1cccc2ccccc21 | 871 | 418 |  |  |  |
| c1ccc2c(c1)ccc[n+]2CCCCC[n+]1cccc2ccccc21 | 34 | 4 |  |  |  |
| c1ccc(C[n+]2cccc3ccccc32)c(C[n+]2cccc3ccccc32)c1 | 6 | 35 |  |  |  |
| c1ccc2c(c1)ccc[n+]2CCCCCCCCCCCC[n+]1cccc2ccccc21 | 0.4 | 0.02 |  |  |  |
| c1ccc2c(c1)ccc[n+]2CCCC[n+]1cccc2ccccc21 | 32 | 38 |  |  |  |
| c1ccc2c(c1)ccc[n+]2CCCCCC[n+]1cccc2ccccc21 | 5 | 25 |  |  |  |
| c1ccc2c(c1)ccc[n+]2Cc1ccc2ccc(C[n+]3cccc4ccccc43)cc2c1 | 0.2 | 0.8 | 2.3 | 8.2 |  |
| c1ccc2c(c1)ccc[n+]2CCCCCCCC[n+]1cccc2ccccc21 | 0.7 | 0.08 |  |  |  |
| c1ccc2c(c1)ccc[n+]2CCC[n+]1cccc2ccccc21 | 13 | 9 |  |  |  |
| c1ccc2c(c1)ccc[n+]2Cc1ccc(C[n+]2cccc3ccccc32)cc1 |  |  |  |  | inactive |
| c1ccc2c(c1)ccc[n+]2CCOCC[n+]1cccc2ccccc21 | 48 | 35 |  |  |  |
| C[N+](C)(CCNC(=O)C(=O)NCC[N+](C)(C)Cc1ccccc1Cl)Cc1ccccc1Cl [AMBENONIUM DICHLORIDE] | 7 |  |  |  |  |
| c1ccc2c(c1)ccc[n+]2CCCCCCCCCCC[n+]1cccc2ccccc21 | 0.5 | 0.01 |  |  |  |
| c1ccc2c(c1)ccc[n+]2CCCCCCC[n+]1cccc2ccccc21 | 0.4 | 0.09 |  |  |  |
| c1cc(C[n+]2cccc3ccccc32)cc(C[n+]2cccc3ccccc32)c1 | 20 | 40 |  |  |  |
| c1ccc2c(c1)ccc[n+]2CCCCCCCCC[n+]1cccc2ccccc21 | 0.6 | 0.08 |  |  |  |
